Like-named read-outs stand apart in the source and are kept apart here.
Columns and labels:
LTRPC2 NUDT9-H = target: T1, LTRPC2 NUDT9-H (Homo sapiens, UniProt O94759); assay: Nudix-type hydrolase activity towards a panel of substrates, NUDT9-H region of LTRPC2; format: biochemical; details: purified bacterially expressed NUDT9-H of LTRPC2
T1 construct: an artificial start codon, amino acids 1197-1503, a stop codon; artificial initiating Met (artificial start codon) (N); made in house; host or cells: E. coli BL21 (DE3), pET-24d
T1 sequence (O94759 1197-1503): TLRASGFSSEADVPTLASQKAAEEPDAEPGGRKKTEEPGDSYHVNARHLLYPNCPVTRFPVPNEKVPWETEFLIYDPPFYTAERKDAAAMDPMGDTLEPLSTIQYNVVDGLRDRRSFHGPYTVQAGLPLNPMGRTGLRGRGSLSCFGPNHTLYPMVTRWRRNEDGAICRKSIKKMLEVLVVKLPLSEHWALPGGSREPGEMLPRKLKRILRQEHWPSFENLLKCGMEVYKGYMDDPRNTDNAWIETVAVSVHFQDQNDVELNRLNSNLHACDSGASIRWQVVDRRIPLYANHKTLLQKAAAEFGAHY
Method: (§1) FIG. 2(B) is a characterization of the enzymatic activity of NUDT9 and NUDT9-H. Purified preparations of NUDT9 and NUDT9-H were screened for Nudix-type activity towards a panel of substrates as described in the methods section. Km and Vmax were calculated by non-linear regression analysis of Lineweaver-Burke plots.
(§2) BL21 (DE3) cells containing the respective expression plasmids were grown at 37° C. in LB broth on a shaker to an A600 of about 0.6 and induced by the addition of isopropyl-b-D-thiogalactopyranoside to a concentration of 1 mM. The cells were grown for an additional 4 h, harvested, washed by suspension in isotonic saline, centrifuged in pre-weighed centrifuge tubes, and the packed cells were stored at −80 ° C. […] In the case of NUDT9, enzyme was extracted in the freeze-thaw fraction and ammonium sulfate was added to 35% final concentration. The precipitate was discarded after centrifugation and ammonium sulfate was added to the supernatant to a final concentration of 50%. The precipitate was collected by centrifugation, dissolved, then chromatographed on a gel filtration column (Sephadex G-100). The active fractions containing the majority of the enzyme were pooled, concentrated by centrifugation in an Amicon Centriprep30, dialyzed, and chromatographed on DEAE-sepharose. The purified enzyme was concentrated from the pooled active fractions again using an Amicon Centriprep30. For the NUDT9 homology region of LTRPC2, the protein was extracted in the freeze-thaw fraction and ammonium sulfate was added to 35% final concentration and centrifuged. The precipitate was dissolved, dialyzed, and chromatographed on DEAE-sepharose. The purified enzyme was concentrated from the pooled active fractions by precipitation with 70% ammonium sulfate.
(§3) Enzyme Assay: Enzyme velocities were quantified by measuring the conversion of a phosphatase-insensitive substrate, ADPR, to the phosphatase-sensitive products, AMP and ribose-5-phosphate. The liberated inorganic orthophosphate was measured by the procedure of Ames and DubinENRfu^27. The standard incubation mixture ([…]) contained 50 mM Tris-Cl, pH 9.0, 16 mM MgCl2, 2 mM ADPR, 0.2-1 milliunitsof enzyme and 4 units of alkaline intestinal phosphatase. After 30 min at 37° C., the reaction was terminated by the addition of EDTA and inorganic orthophosphate was measured. A unit of enzyme hydrolyzes […] of substrate per min under these conditions. Note that 2 moles of phosphate are liberated per mole of ADPR hydrolyzed. Product determination: The standard assay mixture (minus alkaline intestinal phosphatase) was incubated for 30 min at 37° C. and terminated by the addition of […] of a mixture of four parts of Norit (20% packed volume) and one part of 7% HClO4 to remove adenine-containing nucleotides. After centrifugation, […] was adjusted to an alkaline pH and incubated for an additional 30 min at 37° C. with alkaline intestinal phosphatase to hydrolyze the ribose-5-phosphate formed.

NUDT9 = target: T2, NUDT9 (Homo sapiens, UniProt Q9BW91); assay: Nudix-type hydrolase activity towards a panel of substrates, NUDT9; format: biochemical; details: purified bacterially expressed NUDT9
T2 construct: made in house; host or cells: E. coli BL21 (DE3), pET-24d
T2 sequence (Q9BW91 47-350): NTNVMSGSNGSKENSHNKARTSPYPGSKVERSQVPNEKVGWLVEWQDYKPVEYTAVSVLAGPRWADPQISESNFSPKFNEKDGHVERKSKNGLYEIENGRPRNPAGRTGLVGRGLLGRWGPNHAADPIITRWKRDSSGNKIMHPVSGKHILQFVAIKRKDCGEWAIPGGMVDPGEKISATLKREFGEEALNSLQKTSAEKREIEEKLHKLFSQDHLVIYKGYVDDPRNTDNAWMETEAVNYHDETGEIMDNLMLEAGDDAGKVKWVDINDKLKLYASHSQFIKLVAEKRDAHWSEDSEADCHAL
Method: as §1, §2, §3

[1] = test system: ADPR-dependent current (IADPR) in human U937 monocytes; assay: Endogenous ADPR-dependent current (IADPR), whole-cell patch-clamp in U937 monocytes; format: cell-based; details: U937 cells; for EC50: read-out: apparent EC50 for IADPR
Method: FIG. 5 depicts the characterization of endogenous ADPR-dependent current(IADPR) in human U937 monocytes. […] In the right lane, the blot identifies LTRPC2 mRNA in native U937 cells. […] FIG. 5(B) depicts the temporal development of inward currents in U937 cells at −80 mV activated by different intracellular concentrations of ADPR in the presence of 10 mM BAPTA (n=4-11 each). FIG. 5(C) depicts the temporal development of inward currents in U937 cells at −80 mV activated by different intracellular concentrations of ADPR while [Ca^2+]i was buffered to 100 nM (n=5-7 each). FIG. 5(D) depicts the temporal development of inward currents in U937 cells at −80 mV activated by different intracellular concentrations of ADPR in the absence of exogenous buffers (n=5-9 each). […] Representative current record in response to a voltage ramp ranging from −100 to +100 mV over 50 ms. The record was obtained 100 s after whole-cell establishment from a cell perfused with 100 μM ADPR under unbuffered conditions.
For patch-clamp experiments, cells grown on coverslips were transferred to the recording chamber and kept in a standard modified Ringer's solution of the following composition (in mM): NaCl 145, KCl 2.8, CaCl2 1, MgCl2 2, glucose 10, Hepes-NaOH 10, pH 7.2. Intracellular pipette-filling solutions contained (in mM): Cs-glutamate 145, NaCl 8, MgCl2 1, Cs-BAPTA 10, pH 7.2 adjusted with CsOH. In some experiments, BAPTA was omitted from the pipette solution and 100 μM fura-2 was added for the purpose of fluorimetric monitoring of intracellular Ca^2+ concentration. […] The agonists were dissolved in the standard intracellular solution. Patch-clamp experiments were performed in the tight-seal whole-cell configuration at 21-25° C. High-resolution current recordings were acquired by a computer-based patch-clamp amplifier system (EPC-9, HEKA, Lambrecht, Germany). Patch pipettes had resistances between 2-4 MW after filling with the standard intracellular solution. Immediately following establishment of the 5 whole-cell configuration, voltage ramps of 50 ms duration spanning the voltage range of −100 to +100 mV were delivered from a holding potential of 0 mV at a rate of 0.5 Hz over a period of 200 to 400 seconds. All voltages were corrected for a liquid junction potential of 10 mV between external and internal solutions. Currents were filtered at 2.9 kHz and digitized at 100 μs intervals. Capacitive currents and series resistance were determined and corrected before each voltage ramp using the automatic capacitance compensation of the EPC-9. For analysis, the very first ramps prior to current activation were digitally filtered at 2 kHz, pooled and used for leak-subtraction of all subsequent current records. […]

LTRPC2 = target: T3, LTRPC2 (Homo sapiens, UniProt O94759); assay: ADPR-dependent gating of LTRPC2, whole-cell patch-clamp in tetracycline-induced HEK-293 cells expressing FLAG-LTRPC2; format: cell-based
T3 construct: beginning at amino acid 3 and extending to amino acid 1503; FLAG tag within the printed N-terminal leader […]; expressed in transfected cells
T3 sequence (O94759 3-1503): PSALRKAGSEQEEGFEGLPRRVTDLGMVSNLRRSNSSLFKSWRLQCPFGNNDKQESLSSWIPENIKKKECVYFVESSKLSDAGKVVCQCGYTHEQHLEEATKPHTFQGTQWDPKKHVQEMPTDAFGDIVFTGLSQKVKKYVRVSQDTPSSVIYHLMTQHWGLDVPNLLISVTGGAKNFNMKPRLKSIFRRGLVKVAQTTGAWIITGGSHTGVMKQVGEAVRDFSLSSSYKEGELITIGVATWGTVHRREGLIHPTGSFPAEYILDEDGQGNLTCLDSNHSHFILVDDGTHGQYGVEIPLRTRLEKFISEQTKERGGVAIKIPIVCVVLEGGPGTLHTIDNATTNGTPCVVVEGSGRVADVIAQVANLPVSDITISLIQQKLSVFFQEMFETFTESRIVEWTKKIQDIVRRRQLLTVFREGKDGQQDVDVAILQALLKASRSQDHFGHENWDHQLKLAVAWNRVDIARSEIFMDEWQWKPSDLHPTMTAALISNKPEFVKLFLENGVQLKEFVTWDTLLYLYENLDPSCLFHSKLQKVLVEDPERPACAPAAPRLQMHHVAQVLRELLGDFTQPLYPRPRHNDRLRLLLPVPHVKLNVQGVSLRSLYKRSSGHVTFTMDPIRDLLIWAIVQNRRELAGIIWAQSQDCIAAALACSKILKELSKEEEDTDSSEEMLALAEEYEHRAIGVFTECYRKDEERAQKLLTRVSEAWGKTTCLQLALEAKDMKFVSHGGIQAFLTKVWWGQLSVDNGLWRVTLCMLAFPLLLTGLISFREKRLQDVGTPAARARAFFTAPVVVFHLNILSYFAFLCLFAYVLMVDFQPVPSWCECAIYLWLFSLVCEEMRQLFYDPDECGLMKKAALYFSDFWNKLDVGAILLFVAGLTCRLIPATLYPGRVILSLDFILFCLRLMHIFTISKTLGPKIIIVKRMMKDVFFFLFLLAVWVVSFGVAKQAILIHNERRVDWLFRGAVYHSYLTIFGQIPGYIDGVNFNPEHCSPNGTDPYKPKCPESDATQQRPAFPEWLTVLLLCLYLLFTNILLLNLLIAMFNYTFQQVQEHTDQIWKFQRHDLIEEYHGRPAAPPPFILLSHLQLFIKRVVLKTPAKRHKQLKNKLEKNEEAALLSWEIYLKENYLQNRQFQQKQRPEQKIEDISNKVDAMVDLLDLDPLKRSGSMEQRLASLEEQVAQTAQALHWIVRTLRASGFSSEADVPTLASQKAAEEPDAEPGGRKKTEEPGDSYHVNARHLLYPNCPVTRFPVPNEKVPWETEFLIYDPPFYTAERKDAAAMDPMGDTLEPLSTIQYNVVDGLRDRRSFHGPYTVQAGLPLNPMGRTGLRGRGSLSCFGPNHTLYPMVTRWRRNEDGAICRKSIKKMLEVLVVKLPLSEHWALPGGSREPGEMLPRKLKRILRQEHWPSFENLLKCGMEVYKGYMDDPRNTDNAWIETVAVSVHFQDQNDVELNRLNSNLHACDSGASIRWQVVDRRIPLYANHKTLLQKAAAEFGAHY
Method: 10^6 cells were analyzed for expression of a FLAG-reactive protein by anti-FLAG immunoprecipitation/anti-FLAG immunoblotting. […] The open symbols represent superimposed analyses of responses obtained from (i) wild-type HEK-293 cells (WT) perfused with standard internal solution in the absence of ADPR (n=3±sem); (ii) uninduced cells perfused with standard internal solution in the absence of ADPR (n=5±sem); (iii) uninduced HEK-293 cells perfused with standard solution containing 1 mM ADPR (n=3±sem); (iv) tet-induced HEK-293 cells perfused with standard internal solution without ADPR present (n=4±sem). […] The filled symbols indicate the time points at which individual high-resolution data traces were extracted for presentation as I/V curves in FIG. 3(F). […] Ramp currents were recorded in response of a standard voltage ramp stimulus (−100 mV to +100 mV in 50 ms).
FIG. 4 depicts the characterization of ADPR-dependent currents in LTRPC2-expressing in HEK-293 cells. […] HEK-293 cells expressing FLAG-LTRPC2 were perfused with defined ADPR concentrations ranging from […] to 1 mM, and currents were measured at −80 mV as in FIG. 3(D). The maximum current amplitude of individual cells was derived by analyzing the time course of current development (see e.g., FIGS. 3(C) and 3(D)) and fitting a Boltzmann curve to the rising phase of the developing cationic conductance. Peak current amplitudes were averaged and plotted versus ADPR concentration (n=5 to 12±sem). […] FIG. 4(B) depicts the kinetics of ADPR-dependent gating of LTRPC2. The temporal development of ADPR-gated currents was assessed as described in FIG. 4(A) by fitting a Boltzmann curve to the rising phase of the developing cationic conductance. The mid-point values of this analysis correspond to the time of half-maximal current activation, and are plotted as a function of ADPR concentration. […] HEK-293 cells expressing FLAG-LTRPC2 were perfused with 100 μM ADPR. 80 seconds into the experiment, and indicated by the bar, isotonic CaCl2 solution (120 mM CaCl2, 300 mOsm) was applied externally for 20 seconds.
Wild type and tetracycline-inducible HEK-293 FLAG-LTRPC2 expressing cells were cultured at 37° C./5% CO2 in DMEM supplemented with 10% FBS and 2 mM glutamine. The medium was supplemented with blasticidin (5 μg/ml; Invitrogen) and zeocin (0.4 mg/ml; Invitrogen). Cells were resuspended in media containing 1 μg/ml tetracycline (Invitrogen) 24 hours before experiments.
For patch-clamp experiments, cells grown on coverslips were transferred to the recording chamber and kept in a standard modified Ringer's solution of the following composition (in mM): NaCl 145, KCl 2.8, CaCl2 1, MgCl2 2, glucose 10, Hepes-NaOH 10, pH 7.2. Intracellular pipette-filling solutions contained (in mM): Cs-glutamate 145, NaCl 8, MgCl2 1, Cs-BAPTA 10, pH 7.2 adjusted with CsOH.

hydrolysis as substrate by NUDT9-H (LTRPC2 NUDT9-H)	hydrolysis as substrate by NUDT9 (NUDT9)	Compound	other results
–	–	Nc1ncnc2c1ncn2[C@@H]1O[C@H](COP(=O)(O)OP(=O)(O)OC[C@H]2OC(O)[C@H](O)[C@@H]2O)[C@@H](O)[C@H]1O (stereo partly drawn) [ADPR, Adenosine 5-diphospho (ADP)-ribose]	Hill coefficient ([1]; [Ca2+]i buffered to 100 nM): 8; EC50 ([1]; [Ca2+]i buffered to 100 nM): 130 µM; Hill coefficient ([1]; unbuffered): 8; EC50 ([1]; unbuffered (exogenous buffers omitted)): 40 µM; Hill coefficient of dose-response curve (LTRPC2; HEK-293 cells expressing FLAG-LTRPC2, currents at −80 mV): 9; EC50 (LTRPC2; HEK-293 cells expressing FLAG-LTRPC2, intracellular perfusion, peak currents at −80 mV, read-out: apparent EC50 of ADPR-dependent gating of LTRPC2): 90 µM; cells that generated currents above control levels (LTRPC2; cells perfused with 60 μM ADPR or higher (n=38)): 91%; intracellular concentration at which gating of the LTRPC2 channel begins (LTRPC2; intracellular ADPR): 60 to 100 µM; intracellular concentration at which saturation occurs (LTRPC2; intracellular ADPR): ~300 µM; membrane currents at −80 mV (LTRPC2; tet-induced HEK-293 cells expressing FLAG-LTRPC2 perfused with 100 μM ADPR): large inward currents
not hydrolyzed	not hydrolyzed	NC(=O)C1=CN([C@@H]2O[C@H](COP(=O)(O)OP(=O)(O)OC[C@H]3O[C@@H](n4cnc5c(N)ncnc54)[C@H](O)[C@@H]3O)[C@@H](O)[C@H]2O)C=CC1 [NADH]	–
not hydrolyzed	not hydrolyzed	NC(=O)c1ccc[n+]([C@@H]2O[C@H](COP(=O)([O-])OP(=O)(O)OC[C@H]3O[C@@H](n4cnc5c(N)ncnc54)[C@H](O)[C@@H]3O)[C@@H](O)[C@H]2O)c1 [NAD^+, nicotinamide adenine dinucleotide]	–
not hydrolyzed	not hydrolyzed	Nc1ccn([C@H]2C[C@H](O)[C@@H](COP(=O)(O)OP(=O)(O)OP(=O)(O)O)O2)c(=O)n1 [deoxy-CTP]	–
not hydrolyzed	not hydrolyzed	Nc1nc2c(ncn2[C@H]2C[C@H](O)[C@@H](COP(=O)(O)OP(=O)(O)OP(=O)(O)O)O2)c(=O)[nH]1 [deoxy-GTP]	–
not hydrolyzed	not hydrolyzed	Cc1cn([C@H]2C[C@H](O)[C@@H](COP(=O)(O)OP(=O)(O)OP(=O)(O)O)O2)c(=O)[nH]c1=O [deoxy-TTP]	–

Compound	hydrolysis as substrate by NUDT9-H (LTRPC2 NUDT9-H)	hydrolysis as substrate by NUDT9 (NUDT9)	other results
Nc1ncnc2c1ncn2[C@@H]1O[C@H](COP(=O)(O)OP(=O)(O)O[C@H]2O[C@H](CO)[C@@H](O)[C@H](O)[C@H]2O)[C@@H](O)[C@H]1O [ADP-lucose]	not hydrolyzed	not hydrolyzed	–
Nc1nc2c(ncn2[C@@H]2O[C@H](COP(=O)(O)OP(=O)(O)O[C@H]3O[C@H](CO)[C@@H](O)[C@H](O)[C@@H]3O)[C@@H](O)[C@H]2O)c(=O)[nH]1 [GDP-mannose]	not hydrolyzed	not hydrolyzed	–

Reference: patent US20020182635A1, “Methods of screening for LTRPC2 modulators” (priority 2000, published 2002)
